In paper PMC10672575, “The Polyketides with Antimicrobial Activities from a Mangrove Endophytic Fungus Trichoderma lentiforme ML-P8-2” (Marine Drugs, 2023):
In brackets after ≈: the same amount, converted by molar mass.

Experiments:
AChE = AChE (Homo sapiens, UniProt P22303); test: biochemical; settings: average of two independent experiments; read-out: IC50 for AChE inhibitory activities
Description: Donepezil hydrochloride was taken as a positive control. All measurements were conducted in triplicate from two independent experiments. The reported IC50 was the average value of two independent experiments.

Candida albicans = test: Antifungal MIC, serial dilution in 96-well plates
Description: (§1) All measurements were conducted in triplicate. Ampicillin and ketoconazole were applied as positive controls for antibacterial and antifungal assays, respectively, and DMSO was utilized as a blank control.

Penicillium italicum = test: Antifungal MIC, serial dilution in 96-well plates
[1] = tested on: methicillin-resistant Staphylococcus aureus (MRSA); test: Antibacterial MIC, serial dilution in 96-well plates
Description: as §1

Staphylococcus aureus = test: as above
Description: as §1

Bacillus subtilis = test: as above
Description: as §1

Salmonella typhimurium = test: as above; settings: Salmonella enterica
Description: as §1

Pseudomonas aeruginosa = test: as above
Description: as §1

Cytotoxicity, MTT assay = format: cell-based; settings: human, A549 lung cancer cells
Description: The cytotoxicities of compounds 1–10 and eujavanicol A on cells were assessed using MTT assay as described previously. Six cell lines were used, MDA-MB-435 (breast cancer cells), MDA-MB-231 (breast cancer cells), HCT116 (colon cancer cells), A549 (lung cancer cells), SNB19 (glioma cells), and PC3 (prostate cancer cells), which were acquired from Fu Erbo Biotechnology Co., Ltd. (Guangzhou, China).

Chain of AChE (P22303 32-614): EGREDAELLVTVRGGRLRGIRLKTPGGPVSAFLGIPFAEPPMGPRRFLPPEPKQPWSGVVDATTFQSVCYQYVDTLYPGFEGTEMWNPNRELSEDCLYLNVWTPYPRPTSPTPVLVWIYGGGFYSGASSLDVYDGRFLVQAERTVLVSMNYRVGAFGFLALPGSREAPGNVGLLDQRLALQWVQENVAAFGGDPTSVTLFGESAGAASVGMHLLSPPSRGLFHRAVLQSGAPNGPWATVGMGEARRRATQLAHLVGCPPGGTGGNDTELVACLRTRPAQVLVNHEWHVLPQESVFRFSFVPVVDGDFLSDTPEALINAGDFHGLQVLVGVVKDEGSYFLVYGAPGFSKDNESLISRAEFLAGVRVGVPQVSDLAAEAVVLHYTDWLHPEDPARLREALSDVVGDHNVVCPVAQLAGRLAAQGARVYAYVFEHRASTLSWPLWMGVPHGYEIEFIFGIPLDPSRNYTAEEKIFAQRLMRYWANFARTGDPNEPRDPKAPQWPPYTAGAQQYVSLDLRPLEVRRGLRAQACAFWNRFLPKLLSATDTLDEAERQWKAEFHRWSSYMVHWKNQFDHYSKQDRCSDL

Structure (SMILES)	IC50 (AChE) [µM]	MIC (Candida albicans) [µM]	MIC (Penicillium italicum) [µM]	MIC [1] [µM]	MIC (Staphylococcus aureus) [µM]	MIC (Bacillus subtilis) [µM]	MIC (Salmonella typhimurium) [µM]	MIC (Pseudomonas aeruginosa) [µM]	IC50 (Cytotoxicity, MTT assay) [µM]
CC[C@@H](C)[C@H]1C=C[C@H]2[C@H](O)[C@H](OC(=O)/C=C(\C)CC(=O)O)C[C@@H](C)[C@@H]2[C@@]1(C)C(=O)CCO [Compound 7, trichoharzin]	38.3 ± 0.4	50 (≈ 22.5 µg/mL)	12.5 (≈ 5.63 µg/mL)	> 100	> 100	> 100	> 100	> 100	
CCC(C)C1C=CC2C(O)C(OC(=O)C=C(C)CC(=O)O)CC(C)C2C1(C)C(=O)CCO (centres unmarked) [Compound 6, Tandyukisin J]	40.2 ± 0.7	25 (≈ 11.3 µg/mL)	6.25 (≈ 2.82 µg/mL)	> 100	> 100	> 100	> 100	> 100	
COc1cc(O)c2c(=O)c(C3CC(O)C(=O)O3)c(C)oc2c1 (centres unmarked) [Compound 1, 5-hydroxy-3-((3’R, 5’S)-3’-hydroxy-2’-oxotetrahydrofuran-5’-yl)-7-methoxy-2-methyl-4H-chromen-4-one]	38.6 ± 0.2	50 (≈ 15.3 µg/mL)	> 100	> 100	> 100	> 100	> 100	> 100	47.2 ± 5.5
COc1cc(OC)c2c(=O)c(CO)c(C)oc2c1 [Compound 2, 3-(hydroxymethyl)-5,7-dimethoxy-2-methyl-4H-chromen-4-one]	33.7 ± 0.4	100 (≈ 25 µg/mL)	> 100	> 100	> 100	> 100	> 100	> 100	
CC[C@@H](C)[C@H]1C=C[C@H]2[C@H](O)[C@H](OC(=O)C/C(C)=C\C(=O)O)C[C@@H](C)[C@@H]2[C@@]1(C)C(=O)CCO [Compound 8, tandyukisin D]	77.9 ± 1.7	50 (≈ 22.5 µg/mL)	12.5 (≈ 5.63 µg/mL)	> 100	> 100	> 100	50 (≈ 22.5 µg/mL)	50 (≈ 22.5 µg/mL)	
CC1(C)S[C@@H]2[C@H](NC(=O)[C@H](N)c3ccccc3)C(=O)N2[C@H]1C(=O)O [Ampicillin, reference compound]				0.25 (≈ 0.0874 µg/mL)	0.25 (≈ 0.0874 µg/mL)	0.25 (≈ 0.0874 µg/mL)	0.25 (≈ 0.0874 µg/mL)	0.13 (≈ 0.0454 µg/mL)	
CC[C@@H](C)[C@H]1C=C[C@H]2[C@H](O)[C@H](OC(=O)C/C(C)=C/C(=O)O)C[C@@H](C)[C@@H]2[C@@]1(C)C(=O)CCO [Compound 9, tandyukisin G]	43.6 ± 0.4	25 (≈ 11.3 µg/mL)	6.25 (≈ 2.82 µg/mL)	> 100	50 (≈ 22.5 µg/mL)	> 100	> 100	50 (≈ 22.5 µg/mL)	
CC(=O)N1CCN(c2ccc(OCC3COC(Cn4ccnc4)(c4ccc(Cl)cc4Cl)O3)cc2)CC1 (centres unmarked) [Ketoconazole, reference compound]		0.13 (≈ 0.0691 µg/mL)	1.56 (≈ 0.829 µg/mL)						
CC[C@@H](C)[C@H]1C=C[C@H]2[C@H](OC(=O)C/C(C)=C\C(=O)O)[C@H](O)C[C@@H](C)[C@@H]2[C@@]1(C)C(=O)CCO [Compound 10, tandyukisin C]	50.9 ± 0.5	25 (≈ 11.3 µg/mL)	50 (≈ 22.5 µg/mL)	> 100	> 100	> 100	> 100	> 100	
CC[C@@H](C)[C@H]1C=C[C@H]2[C@H](O)[C@H](O)C[C@@H](C)[C@@H]2[C@@]1(C)C(=O)CCO [Eujavanicol A, eujavanicol A]	32.4 ± 0.7	25 (≈ 8.11 µg/mL)	25 (≈ 8.11 µg/mL)	> 100	> 100	> 100	> 100	> 100	
COc1cc(O)c2c(=O)c(CO)c(C)oc2c1 [Compound 3, 5-hydroxy-3-(hydroxymethyl)-7-methoxy-2-methyl-4H-chromen-4-one]	20.6 ± 0.3	25 (≈ 5.91 µg/mL)	> 100	> 100	> 100	> 100	> 100	> 100	
